Laboratory results: patent US6613758B1, “Method for treating osteoporosis in castrated prostatic cancer patients” (Barr Laboratories, Inc., priority 1999, dated 2003)

Experiments:
[1] = pharmacokinetics of CPA in humans, plasma concentration; format: in vivo, human; details: longer period of continual dosing of 50 mg per day
Text: The Androcur® Monograph, Berlex, Canada (1997) reports on the pharmacokinetics of CPA in humans. […] Blood levels of CPA are known to be generally dose dependent.

[2] = 367 evaluable patients; criteria weight gain and pain relief; cited from earlier work
[3] = orchiectomized patients, 6 months, 150 mg/day CPA (50 mg t.i.d.); cited from earlier work
[4] = cited from earlier work
[5] = male subjects, oral, one 50 mg dose; cited from earlier work
[6] = men; cited from earlier work
[7] = test system: human breast cancer ZR-75-1 cells; details: low concentrations, in vitro; cited from earlier work
[8] = castrated adult rats; cited from earlier work
[9] = 17 patients, goserelin alone; cited from earlier work

In the case of `CC(=O)O[C@]1(C(C)=O)CC[C@H]2[C@@H]3C=C(Cl)C4=CC(=O)[C@@H]5C[C@@H]5[C@]4(C)[C@H]3CC[C@@]21C` [CPA, Cyproterone acetate], the “cumulative plasma level, steady state” value [1] is listed as no less than 750 nmol/L, the “patients with general improvement in subjective assessment of quality of life” value [2] is listed as 70% and the “number of patients experiencing hot flashes or outbreaks of sweating” value [3] is listed as “decreased”. The “discontinuation due to side effects” value ([4]; 89 orchiectomized patients, 50 mg/day CPA, 2 to 152 months) was “in no case”, the “cases of hepatocellular carcinoma” value ([4]; over 2500 patients, long term CPA use) was “Not a single case” and the mean plasma concentration [5] was “about 700 nmol/L”. The “threshold value for an antiandrogen effect” value [6] was 50 mg, the androgenic activity [7] was “possess androgenic activity” and the “inhibition of complete involution of the ventral prostate” value [8] was “very weak”.
For `C#C[C@]1(O)CC[C@H]2[C@@H]3CCC4=CC(=O)CC[C@]4(C)[C@H]3CC[C@@]21C` [ethisterone], the androgenic activity [7] is given as “possess androgenic activity”.
In the case of `CC(C)C[C@H](NC(=O)[C@@H](COC(C)(C)C)NC(=O)[C@H](Cc1ccc(O)cc1)NC(=O)[C@H](CO)NC(=O)[C@H](Cc1c[nH]c2ccccc12)NC(=O)[C@H](Cc1cnc[nH]1)NC(=O)[C@@H]1CCC(=O)N1)C(=O)N[C@@H](CCCNC(=N)N)C(=O)N1CCC[C@H]1C(=O)NNC(N)=O` [goserelin], the “patients with transient increase in bone pain” value [9] is given as 58.5%.
In the case of `C[C@]12CC[C@H]3[C@@H](CCC4=CC(=O)CC[C@@H]43)[C@@H]1CC[C@@H]2O` [nor-testosterone], the androgenic activity [7] is given as “possess androgenic activity”.
